Data taken from US20020192262A1, “1'-Acetoxychavicol acetate for tuberculosis treatment” (National Science and Technology Development Agency, priority 2001, published 2002).

How the values were obtained:
[1] = system: Mycobacterium tuberculosis H37Ra strain (ATCC 25166); assay: Microplate Alamar Blue assay (MABA), growth inhibition; type: cell-based; settings: two-fold serial dilution from 50 to 0.025 μg/ml, read-out: MIC against M. tuberculosis H37Ra
Description: Mycobacterium tuberculosis H37Ra strain (ATCC 25166) was grown in 100 ml of Middlebrook 7H9 broth supplemented with 0.2% glycerol, 1.0 gm/L of casitone, 10% OADC, and 0.05% Tween 80. The complete medium was referred to as 7H9GC-Tween. The bacteria were incubated in 500-ml flasks on a rotary shaker at 200 rpm and 37° C. until the optical density at 550 nm reached 0.4-0.5. The bacteria were washed twice with phosphate-buffered saline and then suspended in 20 ml of phosphate-buffered saline. The suspension was passed through an 8-μm-pore-size filter to eliminate clumps. The number of the bacteria in the filtrates was counted by plating the bacteria in Middlebrook 7H10 agar. The filtrates were stored at −80° C.
Anti-tuberculous testing was performed in a 96-well microplate as previously described (Collins, L. and Franzblau, S. G. 1997). […]
The plates were sealed with Parafilm and were incubated at 37° C. for 5 days. […] The results were recorded at 24 h post-reagent addition.
A blue color in the well was interpreted as no growth, reflecting the activity of the test compound in the well. A pink color was scored as growth and reflected the lack of activity of the test compound. A few wells appeared violet after 24 h of incubation, but they invariably changed to pink after another day of incubation and thus were scored as growth (while the adjacent blue wells remained blue). […]

Vero cells = settings: African green monkey, 3 days
[2] = system: dermatophytic fungi such as Trichophyton mentagrophytes, Trichophyton rubrum, Trichophyton concentricum and Epidermophyton floccosum; settings: cited from earlier work
[3] = system: Rhizopus stolonifer, Penicillium expansum, Aspergilus niger; settings: compared with MIC for dermatophytic fungi; cited from earlier work
Candida albicans = settings: cited from earlier work
Escherichia coli = settings: cited from earlier work
Pseudomonas aeruginosa = settings: cited from earlier work
Bacillus subtilis = settings: cited from earlier work
Staphylococcus aureus = settings: cited from earlier work
[4] = system: nitric oxide synthase production in RAW264 (mice macrophage) cell line; settings: concentration of 250 (unit not given), cited from earlier work
[5] = system: tumor and cancer in mice experimental models; settings: skin, bile duct, esophageal, large intestinal, oral cancer and liver tumor models; cited from earlier work
Ebstein-Barr virus = settings: cited from earlier work
xanthine oxidase = xanthine oxidase (Homo sapiens, UniProt P47989); settings: cited from earlier work
NADPH oxidase = settings: cited from earlier work

Chain of xanthine oxidase (P47989 whole entry, species assumed): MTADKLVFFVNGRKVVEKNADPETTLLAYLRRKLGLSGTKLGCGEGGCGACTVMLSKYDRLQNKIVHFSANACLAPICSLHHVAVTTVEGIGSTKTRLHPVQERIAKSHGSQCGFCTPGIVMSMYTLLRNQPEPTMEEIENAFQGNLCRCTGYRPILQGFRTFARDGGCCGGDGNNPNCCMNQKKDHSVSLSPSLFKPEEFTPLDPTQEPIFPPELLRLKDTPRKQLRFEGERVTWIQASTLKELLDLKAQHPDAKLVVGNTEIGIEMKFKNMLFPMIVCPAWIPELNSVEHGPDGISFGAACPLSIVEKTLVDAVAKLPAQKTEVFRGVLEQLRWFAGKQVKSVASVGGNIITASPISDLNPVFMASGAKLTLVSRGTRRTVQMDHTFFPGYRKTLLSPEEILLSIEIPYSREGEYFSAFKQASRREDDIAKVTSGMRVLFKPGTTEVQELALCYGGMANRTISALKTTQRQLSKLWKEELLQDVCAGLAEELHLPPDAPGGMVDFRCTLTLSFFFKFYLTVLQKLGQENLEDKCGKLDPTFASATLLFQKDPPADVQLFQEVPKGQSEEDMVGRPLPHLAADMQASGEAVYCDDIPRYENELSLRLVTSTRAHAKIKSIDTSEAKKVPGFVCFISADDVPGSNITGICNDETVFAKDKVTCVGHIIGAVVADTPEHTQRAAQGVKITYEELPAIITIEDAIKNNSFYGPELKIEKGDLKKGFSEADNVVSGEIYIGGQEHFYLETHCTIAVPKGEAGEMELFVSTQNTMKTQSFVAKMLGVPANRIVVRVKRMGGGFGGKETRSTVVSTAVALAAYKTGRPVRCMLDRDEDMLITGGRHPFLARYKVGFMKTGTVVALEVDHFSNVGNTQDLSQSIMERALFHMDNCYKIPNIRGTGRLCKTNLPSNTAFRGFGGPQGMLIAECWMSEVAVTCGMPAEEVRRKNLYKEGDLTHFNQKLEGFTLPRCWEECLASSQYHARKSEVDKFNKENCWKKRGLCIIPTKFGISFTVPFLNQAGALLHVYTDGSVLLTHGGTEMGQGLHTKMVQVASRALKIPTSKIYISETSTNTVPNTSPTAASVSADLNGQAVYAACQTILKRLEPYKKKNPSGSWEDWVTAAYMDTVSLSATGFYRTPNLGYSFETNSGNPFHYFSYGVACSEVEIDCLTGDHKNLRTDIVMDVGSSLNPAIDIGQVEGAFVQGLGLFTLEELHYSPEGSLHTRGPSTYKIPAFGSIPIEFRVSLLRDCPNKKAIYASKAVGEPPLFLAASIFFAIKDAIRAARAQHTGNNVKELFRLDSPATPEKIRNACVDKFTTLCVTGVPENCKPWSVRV

C=CC(OC(C)=O)c1ccc(OC(C)=O)cc1 (stereo not drawn) [1′-acetoxychavicol acetate, 1′-Acetoxychavicol acetate]
MIC [1]: 0.1 µg/mL | toxic level against Vero cells (concentration giving less than half the viable cells of negative control) (Vero cells): 2.0 µg/mL | minimal inhibitory concentrations (MIC) against dermatophytic fungi [2]: 50 to 250 µg/mL | growth inhibition of Rhizopus stolonifer, Penicillium expansum, Aspergilus niger [3]: inhibited the growth of several other fungi | growth inhibition of Candida albicans (Candida albicans): could not inhibit the growth | growth inhibition of Escherichia coli (Escherichia coli): could not inhibit the growth | growth inhibition of Pseudomonas aeruginosa (Pseudomonas aeruginosa): could not inhibit the growth | growth inhibition of Bacillus subtilis (Bacillus subtilis): could not inhibit the growth | growth inhibition of Staphylococcus aureus (Staphylococcus aureus): could slightly inhibit the growth | inhibition of nitric oxide synthase production, lipopolysaccharide stimulated ([4]; 100 ng/ml bacterial lipopolysaccharide): could completely inhibit | inhibition of nitric oxide synthase production, interferon-γ stimulated ([4]; 100 ng/ml interferon-γ): 80% | inhibition of tumor and cancer formation [5]: can inhibit the formation of many tumor and cancer | inhibition of activation of tumor virus (Ebstein-Barr virus): could inhibit the activation of tumor virus | inhibition of the function of xanthine oxidase (xanthine oxidase): could inhibit the function | inhibition of the function of NADPH oxidase (NADPH oxidase): could inhibit the function
